# Laboratory results: the supplement of paper PMC11061612
# Experiments:
# [1] = test system: KATOIII (Gastric Carcinoma); assay: Bliss excess, mean over the matrix (fraction); higher = more synergy
# Method in brief: (§1)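 Bliss excess equals the observed combination effect minus the expected value EA + EB − EA·EB, where EA and EB are the effects of each agent alone. Combination Emax is the second-highest inhibition within the matrix. Inhibition was scaled from CellTiter-Glo 2.0 luminescence, with 0 set by vehicle wells and 1 by blank wells, after 72 hours of two-drug dosing of cells plated in 1536-well plates.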
# SN12C (Kidney Carcinoma) [2] = assay: as above
# Method in brief: as §1
# [3] = test system: NCI-H1781 (Lung Adenocarcinoma); assay: as above
# Method in brief: as §1
# [4] = test system: SNU-C5 (Colorectal Carcinoma); assay: as above
# Method in brief: as §1
# [5] = test system: SW1783 (Low Grade Glioma); assay: as above
# Method in brief: as §1
# [6] = test system: IHH-4 (Thyroid Gland Carcinoma); assay: as above
# Method in brief: as §1
# [7] = test system: TGBC24TKB (Biliary Tract Carcinoma); assay: as above
# Method in brief: as §1
# [8] = test system: HPAC (Pancreatic Carcinoma); assay: as above
# Method in brief: as §1
# IGR-1 (Melanoma) = assay: as above
# Method in brief: as §1
# [9] = test system: 697 (B-Lymphoblastic Leukemia); assay: as above
# Method in brief: as §1
# [10] = test system: CTV-1 (T-Lymphoblastic Leukemia); assay: as above
# Method in brief: as §1
# SN12C (Kidney Carcinoma) [11] = assay: combination Emax (second highest fraction inhibited in the dose matrix, 72 h); higher = more inhibition; extreme values may be limits of the assay
# Method in brief: as §1
# [12] = test system: NCI-H1793 (Lung Adenocarcinoma); assay: as above
# Method in brief: as §1
# [13] = test system: MDA-MB-157 (Breast Carcinoma); assay: as above
# Method in brief: as §1
# [14] = test system: C3A (Hepatocellular Carcinoma); assay: as above
# Method in brief: as §1
# [15] = test system: KM-H2 (Hodgkin's Lymphoma); assay: as above
# Method in brief: as §1
# [16] = test system: IHH-4 (Thyroid Gland Carcinoma); assay: as above
# Method in brief: as §1
# [17] = test system: LS-513 (Colorectal Carcinoma); assay: as above
# Method in brief: as §1
# [18] = test system: EM-2 (Chronic Myelogenous Leukemia); assay: as above
# Method in brief: as §1
# [19] = test system: DOV13 (Ovarian Carcinoma); assay: as above
# Method in brief: as §1
SMILES,Bliss excess [1],Bliss excess (SN12C (Kidney Carcinoma) [2]),Bliss excess [3],Bliss excess [4],Bliss excess [5],Bliss excess [6],Bliss excess [7],Bliss excess [8],Bliss excess (IGR-1 (Melanoma)),Bliss excess [9],Bliss excess [10],combination Emax (SN12C (Kidney Carcinoma) [11]),combination Emax [12],combination Emax [13],combination Emax [14],combination Emax [15],combination Emax [16],combination Emax [17],combination Emax [18],combination Emax [19]
"Cc1c2c(nn1C)CSCc1cc(n(C)n1)CSc1cc(c3ccccc3c1)OCCCc1c(C(=O)O)n(C)c3c-2c(Cl)ccc13 [AZD5991] + CC1(C)CCC(CN2CCN(c3ccc(C(=O)NS(=O)(=O)c4ccc(NCC5CCOCC5)c([N+](=O)[O-])c4)c(Oc4cnc5[nH]ccc5c4)c3)CC2)=C(c2ccc(Cl)cc2)C1 [Venetoclax] (first compound max 1 µM, 7x7, partner max 1 µM)",-0.0176,-0.0193,-0.0597,-0.0164,-0.0164,0.0037,-0.0051,-0.0498,0.2,-0.0564,-0.0011,0.21,0.174,0.862,0.181,0.312,0.253,0.18,0.975,0.221
"CC1(C)CCC(CN2CCN(c3ccc(C(=O)NS(=O)(=O)c4ccc(NCC5CCOCC5)c([N+](=O)[O-])c4)c(Oc4cnc5[nH]ccc5c4)c3)CC2)=C(c2ccc(Cl)cc2)C1 [Venetoclax] + C[C@@H]1COCCN1C2=NC(=NC(=C2)C3(CC3)[S@](=N)(=O)C)C4=C5C=CNC5=NC=C4 [AZD6738] (first compound max 1 µM, 7x7, partner max 10 µM)",-0.0859,-0.047,0.0284,-0.0289,-0.0555,-0.0482,-0.0188,-0.0736,0.0165,0.0052,-0.0067,0.287,0.508,0.886,0.452,0.879,0.691,0.677,0.943,0.91
"NC1(C(=O)N[C@@H](CCO)c2ccc(Cl)cc2)CCN(c2ncnc3[nH]ccc23)CC1 [Capivasertib] + C[C@@H]1COCCN1C2=NC(=NC(=C2)C3(CC3)[S@](=N)(=O)C)C4=C5C=CNC5=NC=C4 [AZD6738] (first compound max 10 µM, 7x7, partner max 10 µM)",-0.0941,-0.0044,-0.032,-0.0645,-0.0511,0.0028,-0.0104,-0.0425,-0.0227,-0.0173,0.0489,0.261,0.543,0.884,0.551,0.879,0.859,0.794,0.973,0.925
"Cn1cnc2c(F)c(Nc3ccc(Br)cc3Cl)c(C(=O)NOCCO)cc21 [Selumetinib] + CC(C)n1c(=O)n(C)c2cnc3cc(F)c(-c4ccc(OCCCN5CCCCC5)nc4)cc3c21 [AZD1390] (first compound max 10 µM, 7x7, partner max 0.3 µM)",0.011,-0.0313,-0.0223,-0.0283,-0.048,-0.0326,-0.109,-0.0401,-0.0297,-0.0227,0.0032,0.237,0.218,0.131,0.412,0.153,0.436,0.858,0.545,0.124
"COc1nnc2ccc(N3CCC(c4ccc(OCCN5CCN(C)C(=O)[C@H]5C)cc4)CC3)nn12 [AZD5153] + C[C@@H]1COCCN1C2=NC(=NC(=C2)C3(CC3)[S@](=N)(=O)C)C4=C5C=CNC5=NC=C4 [AZD6738] (first compound max 1 µM, 7x7, partner max 10 µM)",-0.0164,-0.0091,0.0033,0.0359,0.0235,-0.0118,0.0292,0.0368,0.0759,-0.0106,0.0194,0.204,0.629,0.913,0.741,0.89,0.772,0.755,0.998,0.923
"Cc1cc2ncnn2cc1Nc1ncc2c(n1)n(C1CCOCC1)c(=O)n2C [AZD7648] + O=C(c1cc(Cc2n[nH]c(=O)c3ccccc23)ccc1F)N1CCN(C(=O)C2CC2)CC1 [Olaparib] (first compound max 10 µM, 7x7, partner max 10 µM)",-0.0367,-0.0469,-0.0204,-0.0064,-0.042,-0.0313,-0.0128,-0.0261,-0.0032,0.0076,0.0056,0.138,0.371,0.0869,0.232,0.349,0.219,0.19,0.351,0.386
"COc1cccc(OCCCN)c1-c1cc(Nc2cnc(C#N)cn2)n[nH]1 [Prexasertib] + CN(C)CCCOc1ccc(-c2ccc3ncc4c(c3c2)n(C2CCOCC2)c(=O)n4C)cn1 [AZD0156] (first compound max 1 µM, 7x7, partner max 1 µM)",-0.0053,-0.0387,-0.0803,-0.0292,-0.0111,0.0504,-0.0414,0.0404,0.0399,-0.0087,-0.0108,0.342,0.468,0.935,0.613,0.933,0.901,0.824,0.986,0.927
"CC1(C)CCC(CN2CCN(c3ccc(C(=O)NS(=O)(=O)c4ccc(NCC5CCOCC5)c([N+](=O)[O-])c4)c(Oc4cnc5[nH]ccc5c4)c3)CC2)=C(c2ccc(Cl)cc2)C1 [Venetoclax] + Cc1cc2ncnn2cc1Nc1ncc2c(n1)n(C1CCOCC1)c(=O)n2C [AZD7648] (first compound max 1 µM, 7x7, partner max 10 µM)",-0.0076,-0.0471,-0.0274,-0.0233,-0.0395,-0.027,0.0423,0.0142,-0.0287,-0.0154,-0.0249,0.218,0.41,0.571,0.212,0.161,0.259,0.192,0.254,0.476
"CN(C)CCCOc1ccc(-c2ccc3ncc4c(c3c2)n(C2CCOCC2)c(=O)n4C)cn1 [AZD0156] + C[C@@H]1COCCN1C2=NC(=NC(=C2)C3(CC3)[S@](=N)(=O)C)C4=C5C=CNC5=NC=C4 [AZD6738] (first compound max 1 µM, 7x7, partner max 10 µM)",-0.0207,-0.0795,-0.0229,0.0298,-0.0435,0.0537,-0.0165,0.067,-0.0032,0.0085,-0.0115,0.114,0.455,0.914,0.584,0.821,0.907,0.822,0.949,0.888
"COc1nnc2ccc(N3CCC(c4ccc(OCCN5CCN(C)C(=O)[C@H]5C)cc4)CC3)nn12 [AZD5153] + CCN(CCO)CCCOc1ccc2c(Nc3cc(CC(=O)Nc4cccc(F)c4)[nH]n3)ncnc2c1 [AZD2811] (first compound max 1 µM, 7x7, partner max 1 µM)",-0.0288,0.0129,-0.129,-0.0541,-0.038,0.0167,-0.0349,-0.0283,0.0249,-0.0118,0.0988,0.394,0.278,0.54,0.524,0.351,0.682,0.602,0.986,0.676
"COc1nnc2ccc(N3CCC(c4ccc(OCCN5CCN(C)C(=O)[C@H]5C)cc4)CC3)nn12 [AZD5153] + C=CCn1c(=O)c2cnc(Nc3ccc(N4CCN(C)CC4)cc3)nc2n1-c1cccc(C(C)(C)O)n1 [AZD1775] (first compound max 1 µM, partner max 1 µM)",-0.148,-0.128,-0.0744,-0.0291,-0.0531,-0.0294,-0.0367,-0.111,0.0203,-0.0478,0.0151,0.165,0.358,0.636,0.718,0.943,0.662,0.728,0.986,0.826
"C[C@@H](c1ccc2nccn2c1)n1nnc2ncc(-c3cnn(C)c3)nc21 [Savolitinib] + Cc1c2c(nn1C)CSCc1cc(n(C)n1)CSc1cc(c3ccccc3c1)OCCCc1c(C(=O)O)n(C)c3c-2c(Cl)ccc13 [AZD5991] (first compound max 1 µM, 7x7, partner max 1 µM)",-0.0149,-0.0535,-0.0293,-0.05,-0.0133,-0.0182,-0.029,-0.0586,-0.0112,-0.0516,-0.0223,0.197,0.173,0.639,0.195,0.11,0.0909,0.155,0.364,0.153
"CN(CCO)CC[C@H](CSc1ccccc1)Nc1ccc(S(=O)(=O)NC(=O)c2ccc(N3CCC([C@@H](O)c4ccccc4-c4ccc(Cl)cc4)CC3)cc2)cc1S(=O)(=O)C(F)(F)F [AZD4320] + Cn1cnc2c(F)c(Nc3ccc(Br)cc3Cl)c(C(=O)NOCCO)cc21 [Selumetinib] (first compound max 1 µM, 7x7, partner max 3 µM)",-0.0086,-0.0015,0.0131,0.0837,-0.0419,0.0185,0.0369,0.0371,0.143,0.0943,0.0708,0.337,0.248,0.366,0.847,0.296,0.58,0.941,0.971,0.747
"COc1cccc(OCCCN)c1-c1cc(Nc2cnc(C#N)cn2)n[nH]1 [Prexasertib] + C=CCn1c(=O)c2cnc(Nc3ccc(N4CCN(C)CC4)cc3)nc2n1-c1cccc(C(C)(C)O)n1 [AZD1775] (first compound max 1 µM, partner max 1 µM)",-0.0076,0.0613,0.0258,0.0153,-0.0053,0.136,0.0429,0.0323,0.0284,0.0316,0.0364,0.608,0.532,0.969,0.674,0.962,0.99,0.949,0.986,0.971
